From ChEMBL document CHEMBL3232998, “Spiromastixones A-O, antibacterial chlorodepsidones from a deep-sea-derived Spiromastix sp. fungus” (J Nat Prod, 2014)
Converted amounts (≈) assume the structure as drawn.

Assays:
[1] = test system: Staphylococcus aureus; assay: Antibacterial activity against Staphylococcus aureus ATCC 29213 after 18 hrs by broth microdilution method; format: functional; settings: ATCC 29213, 18 h
[2] = test system: Bacillus thuringiensis; assay: Antibacterial activity against Bacillus thuringiensis SCSIO BT01 after 18 hrs by broth microdilution method; format: functional; settings: SCSIO BT01, 18 h
[3] = test system: Bacillus subtilis; assay: Antibacterial activity against Bacillus subtilis SCSIO BS01 after 18 hrs by broth microdilution method; format: functional; settings: SCSIO BS01, 18 h
[4] = test system: Escherichia coli; assay: Antibacterial activity against Escherichia coli ATCC 25922 after 18 hrs by broth microdilution method; format: functional; settings: ATCC 25922, 18 h
[5] = test system: Staphylococcus aureus; assay: Antibacterial activity against methicillin-sensitive Staphylococcus aureus ATCC 29213 after 18 hrs by broth microdilution method; format: functional, organism-based; settings: ATCC 29213, 18 h, read-out: IC50
[6] = test system: Staphylococcus aureus; assay: Antibacterial activity against methicillin-resistant Staphylococcus aureus ATCC 33591 after 18 hrs by broth microdilution method; format: functional, organism-based; settings: ATCC 33591, 18 h, read-out: IC50
[7] = test system: Staphylococcus aureus; assay: Antibacterial activity against methicillin-sensitive Staphylococcus aureus 15 after 18 hrs by broth microdilution method; format: functional, organism-based; settings: Staphylococcus aureus, 15, 18 h; read-out: IC50
[8] = test system: Staphylococcus aureus; assay: Antibacterial activity against methicillin-sensitive Staphylococcus aureus 12-28 after 18 hrs by broth microdilution method; format: functional, organism-based; settings: 12-28, 18 h
[9] = test system: Staphylococcus aureus; assay: Antibacterial activity against methicillin-resistant Staphylococcus aureus 12-33 after 18 hrs by broth microdilution method; format: functional, organism-based; settings: 12-33, 18 h, read-out: IC50
[10] = test system: Staphylococcus epidermidis; assay: Antibacterial activity against methicillin-sensitive Staphylococcus epidermidis ATCC 12228 after 18 hrs by broth microdilution method; format: functional, organism-based; settings: ATCC 12228, 18 h, read-out: IC50
[11] = test system: Staphylococcus epidermidis; assay: Antibacterial activity against methicillin-sensitive Staphylococcus epidermidis 12-6 after 18 hrs by broth microdilution method; format: functional, organism-based; settings: 12-6, 18 h
[12] = test system: Staphylococcus epidermidis; assay: Antibacterial activity against methicillin-resistant Staphylococcus epidermidis 12-8 after 18 hrs by broth microdilution method; format: functional, organism-based; settings: 12-8, 18 h, read-out: IC50
[13] = test system: Enterococcus faecalis; assay: Antibacterial activity against vancomycin-sensitive Enterococcus faecalis ATCC 29212 after 18 hrs by broth microdilution method; format: functional, organism-based; settings: ATCC 29212, 18 h, read-out: IC50
[14] = test system: Enterococcus faecalis; assay: Antibacterial activity against vancomycin-resistant Enterococcus faecalis ATCC 51299 after 18 hrs by broth microdilution method; format: functional, organism-based; settings: ATCC 51299, 18 h, read-out: IC50
[15] = test system: Enterococcus faecalis; assay: Antibacterial activity against vancomycin-sensitive Enterococcus faecalis 12-5 after 18 hrs by broth microdilution method; format: functional, organism-based; settings: 12-5, 18 h, read-out: IC50
[16] = test system: Enterococcus faecalis; assay: Antibacterial activity against vancomycin-resistant Enterococcus faecalis 09-9 after 18 hrs by broth microdilution method; format: functional, organism-based; settings: 09-9, 18 h, read-out: IC50
[17] = test system: Enterococcus faecium; assay: Antibacterial activity against vancomycin-resistant Enterococcus faecium ATCC 700221 after 18 hrs by broth microdilution method; format: functional, organism-based; settings: ATCC 700221, 18 h, read-out: IC50
[18] = test system: Enterococcus faecium; assay: Antibacterial activity against vancomycin-resistant Enterococcus faecium 12-1 after 18 hrs by broth microdilution method; format: functional, organism-based; settings: 12-1, 18 h, read-out: IC50
[19] = test system: Enterococcus faecium; assay: Antibacterial activity against vancomycin-sensitive Enterococcus faecium 12-3 after 18 hrs by broth microdilution method; format: functional, organism-based; settings: 12-3, 18 h, read-out: IC50
[20] = test system: Escherichia coli; assay: Antibacterial activity against extended spectrum beta-lactamase-deficient Escherichia coli ATCC 25922 after 18 hrs by broth microdilution method; format: functional, organism-based; settings: ATCC 25922, 18 h, read-out: IC50
[21] = test system: Escherichia coli; assay: Antibacterial activity against extended spectrum beta-lactamase-deficient Escherichia coli 1515 after 18 hrs by broth microdilution method; format: functional, organism-based; settings: Escherichia coli, 1515, 18 h
[22] = test system: Escherichia coli; assay: Antibacterial activity against extended spectrum beta-lactamase-deficient Escherichia coli 12-14 after 18 hrs by broth microdilution method; format: functional, organism-based; settings: 12-14, 18 h, read-out: IC50
[23] = test system: Escherichia coli; assay: Antibacterial activity against extended spectrum beta-lactamase producing Escherichia coli 12-15 after 18 hrs by broth microdilution method; format: functional, organism-based; settings: 12-15, 18 h, read-out: IC50
[24] = test system: Klebsiella pneumoniae; assay: Antibacterial activity against extended spectrum beta-lactamase producing Klebsiella pneumoniae ATCC 700603 after 18 hrs by broth microdilution method; format: functional, organism-based; settings: ATCC 700603, 18 h
[25] = test system: Klebsiella pneumoniae; assay: Antibacterial activity against extended spectrum beta-lactamase-deficient Klebsiella pneumoniae 7 after 18 hrs by broth microdilution method; format: functional, organism-based; settings: Klebsiella pneumoniae, 7, 18 h; read-out: IC50
[26] = test system: Klebsiella pneumoniae; assay: Antibacterial activity against NDM-1 producing Klebsiella pneumoniae ATCC BAA-2146 after 18 hrs by broth microdilution method; format: functional, organism-based; settings: ATCC BAA-2146, 18 h, read-out: IC50
[27] = test system: Klebsiella pneumoniae; assay: Antibacterial activity against extended spectrum beta-lactamase-deficient Klebsiella pneumoniae 12-4 after 18 hrs by broth microdilution method; format: functional, organism-based; settings: 12-4, 18 h
[28] = test system: Klebsiella pneumoniae; assay: Antibacterial activity against extended spectrum beta-lactamase producing Klebsiella pneumoniae 12-8 after 18 hrs by broth microdilution method; format: functional, organism-based; settings: 12-8, 18 h, read-out: IC50
[29] = test system: Staphylococcus aureus; assay: Ratio of levofloxacin IC50 to compound IC50 for methicillin-resistant Staphylococcus aureus 12-33 after 18 hrs by broth microdilution method; format: functional

For `CCCc1c(Cl)c(OC)c(Cl)c2c1Oc1c(Cl)c(O)c(Cl)c(CCC)c1C(=O)O2`, the MIC [1] was 0.125 µg/mL (≈ 0.26 µM), the MIC [2] was 0.25 µg/mL (≈ 0.521 µM) and the MIC [3] was 0.125 µg/mL (≈ 0.26 µM). The MIC [4] was greater than 128 µg/mL, the MIC [5] was 4 µM (≈ 1.92 µg/mL) and the MIC [6] was 2 µM (≈ 0.96 µg/mL). The MIC [7] was 2 µM (≈ 0.96 µg/mL), the IC50 [8] was 4 µM and the MIC [9] was 4 µM (≈ 1.92 µg/mL). It also gave an MIC [10] of 4 µM (≈ 1.92 µg/mL), an IC50 [11] of 2 µM and an MIC [12] of 1 µM (≈ 0.48 µg/mL). The MIC [13] was 4 µM (≈ 1.92 µg/mL), the MIC [14] was 4 µM (≈ 1.92 µg/mL) and the MIC [15] was 4 µM (≈ 1.92 µg/mL). It also gave an MIC [16] of 4 µM (≈ 1.92 µg/mL), an MIC [17] of 4 µM (≈ 1.92 µg/mL) and an MIC [18] of 4 µM (≈ 1.92 µg/mL). The MIC [19] was 4 µM (≈ 1.92 µg/mL), the MIC [20] was greater than 256 µM and the IC50 [21] was greater than 256 µM. It also gave an MIC [22] greater than 256 µM, an MIC [23] greater than 256 µM and an IC50 [24] greater than 256 µM. It also gave an MIC [25] greater than 256 µM, an MIC [26] greater than 256 µM and an IC50 [27] greater than 256 µM. The MIC [28] was greater than 256 µM and the “Ratio IC50” value [29] was 2.
